The results in this text go back to US12594285B2, “Compositions and methods for protecting against airborne pathogens and irritants” (APPLIED BIOLOGICAL LABORATORIES, INC., priority 2016, dated 2026).

Data set [1] has as its system Human Rhinovirus A16 (clinical strain: QCHRV.16). The data set is described as follows: Apical Rhinovirus replication by quantitative RT-PCR (Example 4). The conditions noted are these: 3.5, 24 and 48 hours pi; formulations applied apically at 0, 3.5 and 24 h; Rupintrivir 5 μM in basal medium. The format is cell-based.
Data set [2] has the same test system. Briefly: Apical Rhinovirus replication by quantitative RT-PCR (Example 6). The conditions noted are these: Example 6; Rupintrivir 5 μM in basal medium; 3.5, 24 and 48 hours pi. The format is cell-based.
The test system of data set [3] is MucilAir™ 3D model of human airway epithelium infected with Rhinovirus A16. The data set is described as follows: TEER tissue integrity, MucilAir inoculated with Rhinovirus A16 (Example 4). The conditions noted are these: toxic positive control, 10% Triton X-100, after cell damage.
The test system of data set [4] is Influenza A H1N1 (clinical strain: A/California/7/09). The data set is described as follows: Apical Influenza replication by quantitative RT-PCR (Example 5). Format: cell-based. The settings on record: 3.5, 24 and 48 hours pi; Oseltamivir 10 μM in basal medium.

As to `CCOC(=O)/C=C/[C@H](C[C@@H]1CCNC1=O)NC(=O)[C@@H](CC(=O)[C@@H](NC(=O)c1cc(C)on1)C(C)C)Cc1ccc(F)cc1` [Rupintrivir], the “Rhinovirus A16 replication (genome copy number, apical washes)” value in data set [1] and in data set [2] was “inhibited” throughout. As to Triton X-100, the TEER result in data set [3] was “below 100 Ωcm^2”. Regarding `CCOC(=O)C1=C[C@@H](OC(CC)CC)[C@H](NC(C)=O)[C@@H](N)C1` [Oseltamivir], the “Influenza A H1N1 replication (genome copy number, apical washes)” value in data set [4] is “inhibited”.
